Source: ChEMBL document CHEMBL1201862, “PubChem BioAssay data set” (2004)
The source made the active and inactive calls.

Columns and labels:
[1] = target: fMet-Leu-Phe receptor (Homo sapiens, UniProt P21462); assay: formyl peptide receptor binders – dose response (AID 519); assay type: functional
[2] = target: T1, Oxysterols receptor LXR-beta (Homo sapiens, UniProt P55055); assay type: functional, cell-based;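 note: agonist activity at LXR measured by a cell-based luminescence readout across a dose range, run as a counterscreen for daf-12 agonists; HEK293 cells with Gal4-LXR fusion and GAL4-driven luciferase reporter; potency for activation of Gal4-LXR reporter so compounds are agonists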
T1 sequence (P55055 whole entry): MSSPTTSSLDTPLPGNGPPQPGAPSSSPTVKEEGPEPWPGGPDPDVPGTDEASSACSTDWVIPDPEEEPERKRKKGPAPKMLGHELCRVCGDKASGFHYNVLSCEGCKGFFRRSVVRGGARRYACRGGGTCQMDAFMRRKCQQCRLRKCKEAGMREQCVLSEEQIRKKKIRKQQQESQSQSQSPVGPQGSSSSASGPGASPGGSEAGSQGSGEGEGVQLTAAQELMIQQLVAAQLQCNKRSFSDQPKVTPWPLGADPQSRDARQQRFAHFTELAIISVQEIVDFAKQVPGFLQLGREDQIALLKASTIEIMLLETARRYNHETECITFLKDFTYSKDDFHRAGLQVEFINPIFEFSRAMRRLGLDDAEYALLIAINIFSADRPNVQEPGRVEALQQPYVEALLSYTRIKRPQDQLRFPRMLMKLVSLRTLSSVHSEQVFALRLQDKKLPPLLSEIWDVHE

[3] = target: Beta-galactosidase (Escherichia coli, UniProt Q8VNN2); assay: Dose response counterscreen for EBI2 assay utilizing the enzyme, b-galactosidase.; assay type: functional
Beta-galactosidase, sequence (Q8VNN2 whole entry, the tested form may be a part): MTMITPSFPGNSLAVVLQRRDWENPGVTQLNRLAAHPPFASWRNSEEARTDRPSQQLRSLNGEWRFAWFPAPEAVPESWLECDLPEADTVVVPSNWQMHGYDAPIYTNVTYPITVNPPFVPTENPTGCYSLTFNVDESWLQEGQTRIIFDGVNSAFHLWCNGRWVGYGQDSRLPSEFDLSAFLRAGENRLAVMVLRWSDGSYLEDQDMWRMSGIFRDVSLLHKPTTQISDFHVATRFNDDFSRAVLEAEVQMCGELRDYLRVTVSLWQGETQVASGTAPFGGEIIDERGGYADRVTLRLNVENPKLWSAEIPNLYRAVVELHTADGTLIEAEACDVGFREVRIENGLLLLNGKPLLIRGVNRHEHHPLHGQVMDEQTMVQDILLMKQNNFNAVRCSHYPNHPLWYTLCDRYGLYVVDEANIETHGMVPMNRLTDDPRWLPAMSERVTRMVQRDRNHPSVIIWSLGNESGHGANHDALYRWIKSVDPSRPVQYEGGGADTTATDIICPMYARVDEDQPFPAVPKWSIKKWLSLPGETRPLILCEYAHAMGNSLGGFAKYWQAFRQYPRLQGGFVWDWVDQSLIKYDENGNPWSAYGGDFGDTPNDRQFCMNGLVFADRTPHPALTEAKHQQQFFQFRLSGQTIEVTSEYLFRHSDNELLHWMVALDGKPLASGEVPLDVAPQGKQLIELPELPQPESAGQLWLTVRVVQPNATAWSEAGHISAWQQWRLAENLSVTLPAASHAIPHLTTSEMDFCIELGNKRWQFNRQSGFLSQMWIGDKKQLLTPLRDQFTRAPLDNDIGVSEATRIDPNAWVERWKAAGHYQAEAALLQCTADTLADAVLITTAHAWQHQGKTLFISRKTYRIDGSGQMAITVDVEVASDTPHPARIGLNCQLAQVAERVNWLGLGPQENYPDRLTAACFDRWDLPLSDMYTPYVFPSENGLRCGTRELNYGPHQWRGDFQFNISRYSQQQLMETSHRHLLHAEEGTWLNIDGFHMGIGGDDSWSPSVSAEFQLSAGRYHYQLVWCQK

[4] = target: Disintegrin and metalloproteinase domain-containing protein 17 (Homo sapiens, UniProt P78536); assay: exosite inhibitors of ADAM17, dose response, biochemical (AID 743260)
Disintegrin and metalloproteinase domain-containing protein 17, sequence (P78536 whole entry, the tested form may be a part): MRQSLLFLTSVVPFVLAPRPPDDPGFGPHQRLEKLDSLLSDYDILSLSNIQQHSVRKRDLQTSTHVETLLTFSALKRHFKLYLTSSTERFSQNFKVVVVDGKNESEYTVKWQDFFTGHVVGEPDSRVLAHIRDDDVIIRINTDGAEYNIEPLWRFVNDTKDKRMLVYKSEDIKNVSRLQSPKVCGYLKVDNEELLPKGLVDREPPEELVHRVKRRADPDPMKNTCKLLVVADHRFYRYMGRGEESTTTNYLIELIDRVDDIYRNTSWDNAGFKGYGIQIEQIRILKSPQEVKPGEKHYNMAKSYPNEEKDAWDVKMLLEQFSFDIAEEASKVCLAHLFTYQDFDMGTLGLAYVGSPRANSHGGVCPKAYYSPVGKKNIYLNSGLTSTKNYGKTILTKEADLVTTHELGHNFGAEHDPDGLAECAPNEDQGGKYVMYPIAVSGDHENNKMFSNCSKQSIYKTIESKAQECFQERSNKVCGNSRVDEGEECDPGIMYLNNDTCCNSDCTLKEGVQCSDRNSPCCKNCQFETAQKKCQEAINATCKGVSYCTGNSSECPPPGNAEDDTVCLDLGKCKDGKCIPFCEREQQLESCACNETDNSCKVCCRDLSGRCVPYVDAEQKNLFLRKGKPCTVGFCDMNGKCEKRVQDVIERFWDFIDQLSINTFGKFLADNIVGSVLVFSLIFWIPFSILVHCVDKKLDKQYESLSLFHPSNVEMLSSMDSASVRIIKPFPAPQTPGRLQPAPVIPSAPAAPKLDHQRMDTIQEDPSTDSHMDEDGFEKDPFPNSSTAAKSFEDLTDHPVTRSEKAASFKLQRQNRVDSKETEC

[5] = inhibition of ADAM10 peptide cleavage – biochemical, FRET peptide substrate, recombinant human ADAM10, selectivity assay for ADAM17 exosite inhibitor project, dose response (AID 743259);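 note: ADAM10 enzyme cleaving a FRET peptide substrate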
[6] = blockers of HIV-1 ZM109 envelope-driven cell-cell fusion – HeLa effector, CEM target cells, luciferase, cherry-pick, dose response (AID 652058); assay type: functional, cell-based;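 note: luciferase signal from HIV-1 Env mediated cell-cell fusion of effector and target cells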
[7] = blockers of HIV-1 envelope-mediated cell-cell fusion – cherry-pick, dose response (AID 652057); assay type: functional, cell-based
[8] = viability loss in CEM21 cells – cell-based, CellTiter-Glo luminescence, cherry-picked, cytotoxicity control for viral fusion inhibitor project, dose response (AID 652042); assay type: functional;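 note: potency for signal decrease meaning cytotoxicity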
[9] = HIV-1 AD8 envelope cell-cell fusion blockers – cherry-pick, dose response (AID 652062); assay type: functional, cell-based;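 note: luciferase signal from cell-cell fusion driven by HIV-1 clade B AD8 Env; potency is for inhibitors of fusion seen as a drop in luminescence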
[10] = Late stage assay provider results from the probe development effort to identify selective inhibitors of heat shock protein 90 (HSP90): Absorbance-based cell proliferation assay in MCF7 cells.; assay type: functional
[11] = Late stage assay provider results from the probe development effort to identify selective inhibitors of heat shock protein 90 (HSP90): Absorbance-based cell proliferation assay in SKBR3 cells.; assay type: functional; settings: SK-BR-3
[12] = target: Beta-lactamase (Salmonella choleraesuis (strain SC-B67), UniProt Q5J463)
Beta-lactamase (Salmonella choleraesuis (strain SC-B67), UniProt Q5J463), sequence (Q5J463 whole entry): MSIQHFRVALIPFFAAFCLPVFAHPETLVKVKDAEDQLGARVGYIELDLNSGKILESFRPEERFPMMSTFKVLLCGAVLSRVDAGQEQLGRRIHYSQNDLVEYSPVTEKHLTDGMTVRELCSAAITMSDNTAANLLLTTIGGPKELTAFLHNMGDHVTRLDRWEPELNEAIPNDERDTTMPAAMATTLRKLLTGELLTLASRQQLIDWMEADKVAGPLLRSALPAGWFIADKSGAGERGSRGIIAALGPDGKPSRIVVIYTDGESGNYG

[13] = target: Beta-lactamase (Pseudomonas aeruginosa, UniProt Q79MP6);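 note: biochemical dose-response test of metallo-beta-lactamase enzyme inhibition, read out by epi-absorbance; purified recombinant IMP-1 metallo-beta-lactamase with nitrocefin as substrate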
Beta-lactamase (Pseudomonas aeruginosa, UniProt Q79MP6), sequence (Q79MP6 whole entry): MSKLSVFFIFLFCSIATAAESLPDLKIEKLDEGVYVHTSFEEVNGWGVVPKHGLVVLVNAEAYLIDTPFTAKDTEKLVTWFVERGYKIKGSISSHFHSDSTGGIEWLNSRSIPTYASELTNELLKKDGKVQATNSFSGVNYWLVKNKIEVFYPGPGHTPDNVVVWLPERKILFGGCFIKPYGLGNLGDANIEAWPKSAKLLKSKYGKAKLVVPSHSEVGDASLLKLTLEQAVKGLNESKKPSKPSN

[14] = target: T2, Probable nicotinate-nucleotide adenylyltransferase (Staphylococcus aureus (strain N315), UniProt P65502); assay type: functional, Staphylococcus aureus subsp. aureus N315;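 for IC50 Mean: confirmatory dose-response retesting of NadD inhibitor hits first found in an ultra-high-throughput screen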
T2 sequence (P65502 whole entry): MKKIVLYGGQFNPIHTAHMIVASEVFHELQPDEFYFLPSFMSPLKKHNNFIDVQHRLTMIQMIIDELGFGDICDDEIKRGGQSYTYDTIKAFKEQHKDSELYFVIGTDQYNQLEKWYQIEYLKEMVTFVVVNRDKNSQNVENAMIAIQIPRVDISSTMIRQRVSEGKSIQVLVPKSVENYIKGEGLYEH

[15] = target: T2, Probable nicotinate-nucleotide adenylyltransferase; assay type: functional, Staphylococcus aureus subsp. aureus N315; settings: read-out: IC50_Mean

fMet-Leu-Phe receptor, sequence (P21462 whole entry, the tested form may be a part): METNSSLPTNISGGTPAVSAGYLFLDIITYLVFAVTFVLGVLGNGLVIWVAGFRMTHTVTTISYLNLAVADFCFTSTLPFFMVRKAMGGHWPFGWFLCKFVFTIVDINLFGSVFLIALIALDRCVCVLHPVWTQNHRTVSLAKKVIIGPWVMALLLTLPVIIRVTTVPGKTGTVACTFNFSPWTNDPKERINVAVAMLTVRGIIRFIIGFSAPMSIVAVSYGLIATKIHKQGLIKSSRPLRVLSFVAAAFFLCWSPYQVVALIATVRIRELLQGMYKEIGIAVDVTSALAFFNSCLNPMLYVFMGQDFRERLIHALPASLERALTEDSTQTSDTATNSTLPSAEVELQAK

Structure (SMILES): OCc1nc2ccccc2n1CC(O)Cn1ccc2ccccc21 (configuration not stated)
- Ki [1]: > 66.7 µM (inactive)

Structure (SMILES): CC1CCC(NC(=O)c2cccn2C)CC1 (configuration not stated)
- EC50 [2]: > 67.6 µM (inactive)

Structure (SMILES): COc1ccccc1N1CCN(C(=O)c2cc3cc(C)ccc3[nH]2)CC1
- IC50 [3]: > 80 µM (inactive)

Structure (SMILES): C[C@H](c1ccccc1)N1C[C@H](COCc2ccccc2)Oc2cc(N3CC[C@@H](O)C3)ccc2S1(=O)=O
- IC50 [4]: > 69.5 µM (inactive)
- IC50 [5]: 16 µM (inactive)

Structure (SMILES): C[C@H](CO)N1C[C@H](C)[C@H](CN(C)S(=O)(=O)c2ccccc2)Oc2ccc(NC(=O)Nc3cccc4ccccc34)cc2CC1=O
- AC50 [6]: < 0.26 µM (active)
- AC50 [7]: < 0.26 µM (active)
- AC50 [8]: 31.7 µM (active)
- AC50 [9]: 0.685 µM (active)

Structure (SMILES): O=C(Nc1ccc(F)cc1)c1coc(=O)c(Br)c1
- IC50 [10]: 3.4 µM (active)
- IC50 [11]: 8.8 µM (active)

Structure (SMILES): O=C1OC(=O)/C(=C\Nc2cnc3ccccc3c2)C=C1Br
- IC50 [10]: 12.1 µM (inactive)
- IC50 [11]: 17.4 µM (inactive)

Structure (SMILES): COCCCn1/c(=N/C(=O)c2ccccc2)c(C#N)cc2c(=O)n3cccc(C)c3nc21
- IC50 [12]: > 59.6 µM (inactive)
- IC50 [13]: > 59.6 µM (inactive)

Structure (SMILES): CCn1cc(/C=N/NC(=O)c2cc3c(ccc4ccccc43)o2)c2ccccc21
- IC50 [14]: 40.7 µM (active)
- IC50 [15]: 80 µM (inactive)
